# Test: Comparative ex vivo study of the percutaneous absorption of amitriptyline (Frantz cell)
# Assay type: in vitro ADME
# Conditions: ex vivo human skin, topical application
# Protocol: Comparative ex vivo study of the percutaneous absorption of amitriptyline in a formulation A in aqueous gel form (invention) and in a formulation B in cream form (comparative).
# Each of compositions A and B was applied on separate human skin samples. For each composition, the experiment was repeated 3 times with 3 skin samples from 3 different donors, i.e., 9 samples.
# The skin samples are mounted in a Frantz cell and are heated to a surface temperature of 32° C.±1° C.
# Composition A or B is spread evenly using a spatula on each skin sample at a rate of 10 mg per cell, corresponding to 5 mg/cm^2 of skin.
# The skin samples are rinsed 16 hours after application.
# Each skin sample was placed with a tweezers on a paper towel (dermis facing downward).
# The stratum corneum is removed using adhesive strips.
# After removing the stratum corneum, the sample is perforated. The epidermis is then separated from the dermis. Each of them is placed in separate bottles.
# The different samples were then extracted.
structure (smiles),measurement,value
"CN(C)CCC=C1c2ccccc2CCc2ccccc21 [amitriptyline, Amitriptyline]",systemic passage of amitriptyline,less than 0.1 % of the administered dose
